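Briefly, cells in 96-well plates were exposed to five compound concentrations for 48 h, and endpoints were estimated by linear interpolation. GI50 is the concentration that inhibits growth by half. TGI marks complete inhibition of growth.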
How the values were obtained:
Experiment in all cases: inhibition of tumour cell growth, NCI panel, 48 h
[1] = test system: CAKI-1 renal
[2] = test system: NCI-H226 lung
[3] = test system: KM12 colon
[4] = test system: COLO 205 colon
[5] = test system: BT-549 breast
[6] = test system: NCI-H522 lung
[7] = test system: HOP-92 NSCLC
[8] = test system: SW-620 colon
[9] = test system: RPMI-8226 leukemia
[10] = test system: RXF 393 renal

SMILES	GI50 [1] [µM]	TGI [1] [µM]	GI50 [2] [µM]	TGI [2] [µM]	GI50 [3] [µM]	TGI [3] [µM]	GI50 [4] [µM]	TGI [4] [µM]	GI50 [5] [µM]	TGI [5] [µM]	GI50 [6] [µM]	TGI [6] [µM]	GI50 [7] [µM]	TGI [7] [µM]	GI50 [8] [µM]	TGI [8] [µM]	GI50 [9] [µM]	TGI [9] [µM]	GI50 [10] [µM]	TGI [10] [µM]
Cc1[nH]c(=O)nc(Nc2ccc(Cl)cc2)c1C(=O)N1CCN(CCO)CC1	> 100	> 100	> 100	> 100	> 100	> 100	> 100	> 100	53.8	> 100	59.8	> 100	28.7	71.6	> 100	> 100	> 100	> 100	24.4	76.8
O=C1NOC(c2ccc(O)cc2)(c2ccc(O)cc2)c2ccccc21	> 100	> 100	> 100	> 100	> 100	> 100	> 100	> 100	> 100	> 100	> 100	> 100	> 100	> 100	> 100	> 100	> 100	> 100	> 100	> 100
COc1ccc(C2=C(c3ccc(OC)c(OC)c3)C(=O)N3CCCC3C2)cc1 (centres undefined)	39.4	> 100	43.9	> 100	15.7	> 100	8.41	> 100	> 71.2	> 100	15.7	> 100	41.3	> 100	32.5	> 100	8.47	62.6	11.5	> 38.2
C=C1c2ccoc2C[C@H]2[C@H]1CC[C@@]1(O)[C@@](C)(C(=O)OC)CCC[C@]21C	50.2	> 100	18.1	56.2	25.6	89.7	20	55	26	60.3	17.5	54	14.6	57.1	29.8	85.5	21.5	54	48	> 100
Cc1ccc(-c2nc3nc(-c4ccccc4)nc(N4CCNCC4)c3o2)cc1	1.53	2.95	1.79	3.79	0.345	1.36	0.208	0.423	1.69	3.13	0.745	2.26	1.48	3.13	0.23	0.54	0.232	0.571	1.43	2.97
O=C1C(SCCO)=C(SCCO)C(=O)N1c1ccc(-c2ccccc2)cc1	0.644	1.79	23.1	> 53.4	7.55	20.8	1.45	3.09	4.01	8.38	7.51	22.6	1.87	7.24	1.45	3.94	0.845	4.6	1.19	2.73
COC(=O)Nc1nc2ccc(Oc3cccc(NC(=O)Nc4cc(C(F)(F)F)ccc4F)c3)cc2[nH]1	14.3	> 25	> 15.3	> 25	7.57	> 25	8.82	> 25	23	> 25	5.73	20.6	2.94	> 22.2	10.3	> 25	> 20.8	> 25	10.4	> 25
C[C@]12CC[C@@H]3c4ccc(O)cc4CC[C@H]3[C@@H]1Cc1cnc(N)nc12	23.8	49.8	15.2	33.8	11.8	26.8	13.7	27.6	18.7	53.2	17.3	41.2	11.7	31.6	22.4	45.9	12.7	31.4	11.5	31.3
O=C1C(c2cnc3ccccc3n2)=C(O)c2ccccc21		> 100		> 100		> 41.1		> 56.2		> 100		> 100		> 100		> 56.2		> 100		36.1
Cc1cn2c(/C=C3/C(=O)Nc4ccc(O)cc43)c(C)nc2s1	3.28	19.8	4.91	39.8	1.8	24.3	3.58	> 100	5.82	57.7	0.773	> 29.3	0.373	8.87	2.88	> 100	1.93	> 20.6	2.89	> 72.5
CCN1C(=O)N(CC)C2C1NN=c1s/c(=C\c3ccccn3)c(=O)n12 (centres undefined)	0.752	> 100	3.07	> 100	1.29	> 100	1.16	11.6	3.99	> 100	0.69	10.2	2.37	> 100	0.743	> 100	1.71	> 100	1.66	5.86
O1[As]2O[As]3O[As]1O[As](O2)O3	0.567	3.13	1.01	4.64	3.31	13.9	1.67	4.5	0.278	0.903	0.256	1.03	0.238	0.897	0.577	4.54	0.29	2.89	0.502	1.85
Nc1ncnc2c1c(-c1ccc(Oc3ccccc3)cc1)nn2C[C@@H]1SSC[C@H]1O	2.18	10.5	1.69	4.7	0.208	16.7	2.14	7.48	3.58	11.6	2.08	7.18	1.75	5.87	17.3	55	5.58	31.8	1.82	5.18
CC[C@H](CO)Nc1nc(NCc2ccccc2)c2ncn(C(C)C)c2n1	10.9	> 100		> 93.7	10.6	60.2		36.6		45.3		57.8	28.1	> 90.7	49.3	> 100		> 77.8		> 52.4
Cc1ccc(C(=O)NC2CCC2)cc1-c1ccc(C(=O)NCC2CC2)cc1	> 25	> 25	> 25	> 25	> 25	> 25	> 25	> 25	> 25	> 25	> 25	> 25	> 21.3	> 25	> 25	> 25	> 25	> 25	> 25	> 25
Nc1c(C(=O)c2cccc(C#CCO)c2)cnn1-c1ccc(F)cc1	> 25	> 25	> 25	> 25	> 25	> 25	> 25	> 25	> 25	> 25	> 25	> 25	> 13.2	> 25	> 25	> 25	> 25	> 25	> 25	> 25
Cc1nn(-c2ccc(Cl)cc2)c2nc3c(nc12)C(=O)C(=O)c1ccccc1-3	7.93	> 100	7.65	30.1	3.76	15.6	2.03	4.86	1.57	4.76	2.96	6.57	0.18	30.8	3.25	20.9	5.65	> 100	19.7	64.6
COC(=N)c1c(N)[n+]([O-])c2ccc(F)cc2[n+]1[O-]	> 100	> 100	> 100	> 100	> 100	> 100	61.7	> 100	> 100	> 100	54.7	> 100	78.8	> 100	> 100	> 100	81.2	> 100	> 100	> 100

Reference: PubChem BioAssay (NCI)
